Patent US20250188110A1, “SPECIFIC SMALL MOLECULE INHIBITORS THAT BLOCK KMT9 METHYLTRANSFERASE ACTIVITY AND FUNCTION” (ALBERT-LUDWIGS-UNIVERSITÄT FREIBURG, priority 2021, published 2025)

How the values were obtained:
KMT9 [1] = molecular target: T1, KMT9 (Homo sapiens, UniProt Q9Y5N5); test: Microscale thermophoresis (MST) KMT9 binding; settings: microscale thermophoresis, His-tag labelled KMT9 (20 nM); read-out: MST
T1 sequence (Q9Y5N5 1-214): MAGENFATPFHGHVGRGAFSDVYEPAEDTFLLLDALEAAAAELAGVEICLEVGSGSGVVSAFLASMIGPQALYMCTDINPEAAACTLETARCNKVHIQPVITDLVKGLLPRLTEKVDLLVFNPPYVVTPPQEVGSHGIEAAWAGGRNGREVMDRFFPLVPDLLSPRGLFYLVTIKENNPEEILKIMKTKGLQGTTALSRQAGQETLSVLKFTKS
T1 sequence (Q9UI30 1-120 isoform Q9UI30-2 partner): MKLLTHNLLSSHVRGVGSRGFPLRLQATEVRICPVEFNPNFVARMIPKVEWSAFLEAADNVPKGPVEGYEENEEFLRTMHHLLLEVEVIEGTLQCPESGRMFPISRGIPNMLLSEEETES
Outline: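 Kd from microscale thermophoresis: compound series against 20 nM His-KMT9 labelled via RED-Tris-NTA, buffer 25 mM HEPES (pH 7.5)/100 mM NaCl/1 mM DTT/0.05% Tween, 40% MST power, 100% LED. Reported as classes: A ≤10 nM, B >10–100 nM, C >100–1000 nM, D >1000 nM.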

KMT9 [2] = molecular target: T1, KMT9; test: KMT9 thermal shift assay (SyproOrange); assay type: binding; settings: ΔTm; 500 µM compound, 2 μM KMT9, 5X SO; read-out: Thermal shift
Outline: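 ΔTm versus DMSO-only control is reported in bins (>20 K, 15–20 K, 10–15 K, ≤10 K), using Tm from Boltzmann sigmoidal fits of SyproOrange melt curves. KMT9 with compound in pH 8.5 BTP buffer containing MgCl2 and DTT was preincubated at 25° C, then ramped 1° C per 15 s up to 95° C.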

KMT9 [3] = molecular target: T1, KMT9; test: KMT9 methyltransferase inhibition assay, 3H-SAM scintillation (entries 1-154); assay type: biochemical; settings: entries 1-154: 3H-SAM assay, 25 nM KMT9, 5 μM ETF1
Outline: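 Tritium transfer from SAM (0.3 μM 3H-SAM, 0.7 μM unlabelled, final) to 5 μM ETF1 fragment by 25 nM KMT9 was measured after 2 h at 30° C, pH 8.5. Precipitated peptide was collected on filters and scintillation counted; IC50 came from a four-parameter fit of inhibition normalised to controls.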

Structure (SMILES) | Kd (KMT9 [1]) [µM] | ΔTm at 500 µM (KMT9 [2]) [°C] | IC50 (KMT9 [3]) [µM]
NC[C@H]1O[C@@H](n2cc3c4c(ncnc42)NCCC3)[C@H](O)[C@@H]1O [416 (287), (2R,3S,4R,5R)-2-(aminomethyl)-5-(6,7,8,9-tetrahydro-2H-2,3,5,6-tetraazabenzo[cd]azulen-2-yl) tetrahydrofuran-3,4-diol] | > 1 | ≤ 10 | > 10
CNc1ncnc2c1ccn2[C@@H]1C[C@H](COCCNCCc2ccccc2)[C@@H](O)[C@H]1O [419 (290), (1R,2S,3R,5R)-3-[4-(Methylamino)pyrrolo[2,3-d]pyrimidin-7-yl]-5-({2-[(2-phenylethyl)amino]ethoxy}methyl) cyclopentane-1,2-diol] | > 1 | ≤ 10 | > 10
CNc1ncnc2c1ccn2[C@@H]1C[C@H](CCCCNCCc2ccccc2)[C@@H](O)[C@H]1O [423 (294), (1R,2S,3R,5S)-3-(4-(methylamino)-7H-pyrrolo[2,3-d]pyrimidin-7-yl)-5-(4-(phenethylamino)butyl) cyclopentane-1,2-diol] | > 1 | ≤ 10 | > 10
CNc1ncnc2c1ccn2[C@@H]1C[C@H](C#CCNCCc2ccccc2)[C@@H](O)[C@H]1O [426 (297), (1R,2S,3R,5R)-3-[4-(methylamino)pyrrolo[2,3-d]pyrimidin-7-yl]-5-{3-[(2-phenylethyl)amino]prop-1-yn-1-yl}cyclopentane-1,2-diol] | > 1 | ≤ 10 | > 10
CNc1ncnc2c1ccn2[C@@H]1C[C@H](C[S+]([O-])CCCNCCc2ccccc2)[C@@H](O)[C@H]1O (stereo partly drawn) [428 (300), (1R,2S,3R,5S)-3-(4-(Methylamino)-7H-pyrrolo[2,3-d]pyrimidin-7-yl)-5-(((3-(phenethylamino)propyl)sulfinyl)methyl) cyclopentane-1,2-diol] | > 1 | ≤ 10 | > 10
CNc1ncnc2c1ccn2[C@@H]1C[C@H](CSCCN)[C@@H](O)[C@H]1O [430 (302), (1S,2R,3S,5R)-3-(((2-Aminoethyl)thio)methyl)-5-(4-(methylamino)-7H-pyrrolo[2,3-d]pyrimidin-7-yl) cyclopentane-1,2-diol] | > 1 | ≤ 10 | > 10
CNc1ncnc2c1ccn2[C@@H]1C[C@H](C[S+]([O-])CCNCCc2ccccc2)[C@@H](O)[C@H]1O (stereo partly drawn) [432 (304), (1R,2S,3R,5S)-3-(4-(Methylamino)-7H-pyrrolo[2,3-d]pyrimidin-7-yl)-5-(((2-(phenethylamino)ethyl)sulfinyl)methyl) cyclopentane-1,2-diol] | > 1 | ≤ 10 | > 10
CNc1ncnc2c1ccn2[C@@H]1C[C@H](CS(=O)(=O)CCNCCc2ccccc2)[C@@H](O)[C@H]1O [433 (305), (1R,2S,3R,5S)-3-(4-(Methylamino)-7H-pyrrolo[2,3-d]pyrimidin-7-yl)-5-(((2-(phenethylamino)ethyl)sulfonyl)methyl) cyclopentane-1,2-diol] | > 1 | ≤ 10 | > 10

The next lines start with the values.

Kd (KMT9 [1]) [µM] | ΔTm at 500 µM (KMT9 [2]) [°C] | IC50 (KMT9 [3]) [µM] | Structure (SMILES)
> 1 | ≤ 10 | > 10 | CNCCC(=O)N(C)C[C@H]1C[C@@H](n2ccc3c(NC)ncnc32)[C@H](O)[C@@H]1O [417 (288), N-(((1R,2R,3S,4R)-2,3-dihydroxy-4-(4-(methylamino)-7H-pyrrolo[2,3-d]pyrimidin-7-yl)cyclopentyl)methyl)-N-methyl-3-(methylamino)propanamide]
> 1 | ≤ 10 | > 10 | CNc1ncnc2c1ccn2[C@@H]1C[C@H](CNC(=O)C2CCCNC2)[C@@H](O)[C@H]1O (stereo partly drawn) [418 (289), N-(((1R,2R,3S,4R)-2,3-dihydroxy-4-(4-(methylamino)-7H-pyrrolo[2,3-d]pyrimidin-7-yl)cyclopentyl)methyl) piperidine-3-carboxamide]
> 1 | ≤ 10 | > 10 | CNc1ncnc2c1ccn2[C@@H]1C[C@H](COCCCNCCc2ccccc2)[C@@H](O)[C@H]1O [420 (291), (1R,2S,3R,5R)-3-(4-(methylamino)-7H-pyrrolo[2,3-d]pyrimidin-7-yl)-5-((3-(phenethylamino)propoxy)methyl) cyclopentane-1,2-diol]
> 1 | ≤ 10 | > 10 | CNc1ncnc2c1ccn2[C@@H]1C[C@H](COCCCNCCc2cccc(Oc3ccccc3)c2)[C@@H](O)[C@H]1O [421 (292), (1R,2S,3R,5R)-3-(4-(Methylamino)-7H-pyrrolo[2,3-d]pyrimidin-7-yl)-5-((3-((3-phenoxyphenethyl)amino)propoxy)methyl) cyclopentane-1,2-diol]
> 1 | ≤ 10 | > 10 | CNc1ncnc2c1ccn2[C@@H]1C[C@H](/C=C/CCNCCc2ccccc2)[C@@H](O)[C@H]1O [422 (293), (1R,2S,3R,5R)-3-(4-(methylamino)-7H-pyrrolo[2,3-d]pyrimidin-7-yl)-5-((E)-4-(phenethylamino)but-1-en-1-yl) cyclopentane-1,2-diol]
0.1 to 1 | 10 to 15 | 1 to 10 | CNc1ncnc2c1ccn2[C@@H]1C[C@H](CCCCCNCCc2ccccc2)[C@@H](O)[C@H]1O [424 (295), (1R,2S,3R,5S)-3-(4-(Methylamino)-7H-pyrrolo[2,3-d]pyrimidin-7-yl)-5-(5-(phenethylamino)pentyl) cyclopentane-1,2-diol]
> 1 | ≤ 10 | > 10 | CNc1ncnc2c1ccn2[C@@H]1C[C@H](/C=C/CCCNCCc2ccccc2)[C@@H](O)[C@H]1O [425 (296), (1R,2S,3R,5R)-3-(4-(methylamino)-7H-pyrrolo[2,3-d]pyrimidin-7-yl)-5-((E)-5-(phenethylamino)pent-1-en-1-yl) cyclopentane-1,2-diol]
> 1 | ≤ 10 | 1 to 10 | CNc1ncnc2c1ccn2[C@@H]1C[C@H](CSCCCNCCc2ccccc2)[C@@H](O)[C@H]1O [427 (299), (1R,2S,3R,5S)-3-(4-(methylamino)-7H-pyrrolo[2,3-d]pyrimidin-7-yl)-5-(((3-(phenethylamino)propyl)thio)methyl) cyclopentane-1,2-diol]
> 1 | ≤ 10 | > 10 | CNc1ncnc2c1ccn2[C@@H]1C[C@H](CS(=O)(=O)CCCNCCc2ccccc2)[C@@H](O)[C@H]1O [429 (301), (1R,2S,3R,5S)-3-(4-(Methylamino)-7H-pyrrolo[2,3-d]pyrimidin-7-yl)-5-(((3-(phenethylamino)propyl)sulfonyl)methyl) cyclopentane-1,2-diol]
> 1 | ≤ 10 | > 10 | CNc1ncnc2c1ccn2[C@@H]1C[C@H](CSCCNCCc2ccccc2)[C@@H](O)[C@H]1O [431 (303), (1R,2S,3R,5S)-3-(4-(Methylamino)-7H-pyrrolo[2,3-d]pyrimidin-7-yl)-5-(((2-(phenethylamino)ethyl)thio)methyl) cyclopentane-1,2-diol]
> 1 | ≤ 10 | > 10 | CNc1ncnc2c1ccn2[C@@H]1C[C@H](CNC[C@H]2CCCNC2)[C@@H](O)[C@H]1O [436 (308), (1R,2S,3R,5R)-3-[4-(Methylamino)pyrrolo[2,3-d]pyrimidin-7-yl]-5-({[(3S)-piperidin-3-ylmethyl]amino}methyl) cyclopentane-1,2-diol]
